# Laboratory results from the supplement of paper PMC10307832.
# How the values were obtained:
# Assay in all cases: relative viability (nuclei count vs DMSO), 5 days (fraction); higher = more cells survive
# NCI-H1734 = tested on: NCI-H1734
# Summary of the method: (§1)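 Five library-drug doses in √10 steps were combined with a fixed anchor-drug dose, or a single drug was given alone, by pin tool to lung cancer cell lines in 1536-well plates the day after seeding. Nuclei were stained and counted after 5 days. Relative viability is the nuclei count in treated wells over that in vehicle wells, taken as the median of duplicate plates.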
# NCI-H647 = tested on: NCI-H647
# Summary of the method: as §1
# H3255 = tested on: H3255
# Summary of the method: as §1
# NCI-H2009 = tested on: NCI-H2009
# Summary of the method: as §1
# LCLC-97TM1 = tested on: LCLC-97TM1
# Summary of the method: as §1
# NCI-H2126 = tested on: NCI-H2126
# Summary of the method: as §1
# NCI-H727 = tested on: NCI-H727
# Summary of the method: as §1
# NCI-H1993 = tested on: NCI-H1993
# Summary of the method: as §1
# SW 1573 = tested on: SW 1573
# Summary of the method: as §1
# PC-14 = tested on: PC-14
# Summary of the method: as §1
# LXF-289 = tested on: LXF-289
# Summary of the method: as §1
# NCI-H2347 = tested on: NCI-H2347
# Summary of the method: as §1
# EMC-BAC-2 = tested on: EMC-BAC-2
# Summary of the method: as §1
# EPLC-272H = tested on: EPLC-272H
# Summary of the method: as §1
# NCI-H661 = tested on: NCI-H661
# Summary of the method: as §1
# HOP-62 = tested on: HOP-62
# Summary of the method: as §1
# SK-LU-1 = tested on: SK-LU-1
# Summary of the method: as §1
# NCI-H322M = tested on: NCI-H322M
# Summary of the method: as §1
# NCI-H2085 = tested on: NCI-H2085
# Summary of the method: as §1
# NCI-H2023 = tested on: NCI-H2023
# Summary of the method: as §1
# NCI-H1915 = tested on: NCI-H1915
# Summary of the method: as §1
compound,measurement,setting,value
Nc1ccn([C@@H]2O[C@H](CO)[C@@H](O)[C@@H]2O)c(=O)n1 [Cytarabine] + Nc1ncn([C@H]2C[C@H](O)[C@@H](CO)O2)c(=O)n1 [Decitabine] (partner 2 µM),relative viability,NCI-H1734; first compound 0.005 µM,0.439
same,relative viability,NCI-H1734; first compound 0.01581 µM,0.27
same,relative viability,NCI-H1734; first compound 0.05 µM,0.188
same,relative viability,NCI-H1734; first compound 0.1581 µM,0.131
same,relative viability,NCI-H1734; first compound 0.5 µM,0.138
same,relative viability,NCI-H647; first compound 0.005 µM,0.307
same,relative viability,NCI-H647; first compound 0.01581 µM,0.239
same,relative viability,NCI-H647; first compound 0.05 µM,0.258
same,relative viability,NCI-H647; first compound 0.1581 µM,0.108
same,relative viability,NCI-H647; first compound 0.5 µM,0.0719
same,relative viability,H3255; first compound 0.005 µM,0.732
same,relative viability,H3255; first compound 0.01581 µM,0.555
same,relative viability,H3255; first compound 0.05 µM,0.637
same,relative viability,H3255; first compound 0.1581 µM,0.588
same,relative viability,H3255; first compound 0.5 µM,0.375
same,relative viability,NCI-H2009; first compound 0.005 µM,0.325
same,relative viability,NCI-H2009; first compound 0.01581 µM,0.363
same,relative viability,NCI-H2009; first compound 0.05 µM,0.342
same,relative viability,NCI-H2009; first compound 0.1581 µM,0.243
same,relative viability,NCI-H2009; first compound 0.5 µM,0.189
same,relative viability,LCLC-97TM1; first compound 0.005 µM,0.205
same,relative viability,LCLC-97TM1; first compound 0.01581 µM,0.164
same,relative viability,LCLC-97TM1; first compound 0.05 µM,0.211
same,relative viability,LCLC-97TM1; first compound 0.1581 µM,0.127
same,relative viability,LCLC-97TM1; first compound 0.5 µM,0.111
same,relative viability,NCI-H2126; first compound 0.005 µM,0.597
same,relative viability,NCI-H2126; first compound 0.01581 µM,0.518
same,relative viability,NCI-H2126; first compound 0.05 µM,0.514
same,relative viability,NCI-H2126; first compound 0.1581 µM,0.457
same,relative viability,NCI-H2126; first compound 0.5 µM,0.429
same,relative viability,NCI-H727; first compound 0.005 µM,0.964
same,relative viability,NCI-H727; first compound 0.01581 µM,0.713
same,relative viability,NCI-H727; first compound 0.05 µM,0.443
same,relative viability,NCI-H727; first compound 0.1581 µM,0.474
same,relative viability,NCI-H727; first compound 0.5 µM,0.522
same,relative viability,NCI-H1993; first compound 0.005 µM,0.584
same,relative viability,NCI-H1993; first compound 0.01581 µM,0.441
same,relative viability,NCI-H1993; first compound 0.05 µM,0.516
same,relative viability,NCI-H1993; first compound 0.1581 µM,0.471
same,relative viability,NCI-H1993; first compound 0.5 µM,0.206
same,relative viability,SW 1573; first compound 0.005 µM,0.347
same,relative viability,SW 1573; first compound 0.01581 µM,0.184
same,relative viability,SW 1573; first compound 0.05 µM,0.247
same,relative viability,SW 1573; first compound 0.1581 µM,0.121
same,relative viability,SW 1573; first compound 0.5 µM,0.083
same,relative viability,PC-14; first compound 0.005 µM,0.161
same,relative viability,PC-14; first compound 0.01581 µM,0.0896
same,relative viability,PC-14; first compound 0.05 µM,0.114
same,relative viability,PC-14; first compound 0.1581 µM,0.0408
same,relative viability,PC-14; first compound 0.5 µM,0.0434
same,relative viability,LXF-289; first compound 0.005 µM,0.387
same,relative viability,LXF-289; first compound 0.01581 µM,0.312
same,relative viability,LXF-289; first compound 0.05 µM,0.314
same,relative viability,LXF-289; first compound 0.1581 µM,0.227
same,relative viability,LXF-289; first compound 0.5 µM,0.197
same,relative viability,NCI-H2347; first compound 0.005 µM,0.61
same,relative viability,NCI-H2347; first compound 0.01581 µM,0.56
same,relative viability,NCI-H2347; first compound 0.05 µM,0.507
same,relative viability,NCI-H2347; first compound 0.1581 µM,0.537
same,relative viability,NCI-H2347; first compound 0.5 µM,0.573
same,relative viability,EMC-BAC-2; first compound 0.005 µM,0.943
same,relative viability,EMC-BAC-2; first compound 0.01581 µM,0.836
same,relative viability,EMC-BAC-2; first compound 0.05 µM,0.597
same,relative viability,EMC-BAC-2; first compound 0.1581 µM,0.315
same,relative viability,EMC-BAC-2; first compound 0.5 µM,0.332
same,relative viability,EPLC-272H; first compound 0.005 µM,0.403
same,relative viability,EPLC-272H; first compound 0.01581 µM,0.358
same,relative viability,EPLC-272H; first compound 0.05 µM,0.346
same,relative viability,EPLC-272H; first compound 0.1581 µM,0.224
same,relative viability,EPLC-272H; first compound 0.5 µM,0.247
same,relative viability,NCI-H661; first compound 0.005 µM,0.556
same,relative viability,NCI-H661; first compound 0.01581 µM,0.509
same,relative viability,NCI-H661; first compound 0.05 µM,0.519
same,relative viability,NCI-H661; first compound 0.1581 µM,0.422
same,relative viability,NCI-H661; first compound 0.5 µM,0.295
same,relative viability,HOP-62; first compound 0.005 µM,0.222
same,relative viability,HOP-62; first compound 0.01581 µM,0.189
same,relative viability,HOP-62; first compound 0.05 µM,0.179
same,relative viability,HOP-62; first compound 0.1581 µM,0.162
same,relative viability,HOP-62; first compound 0.5 µM,0.126
same,relative viability,SK-LU-1; first compound 0.005 µM,0.526
same,relative viability,SK-LU-1; first compound 0.01581 µM,0.565
same,relative viability,SK-LU-1; first compound 0.05 µM,0.524
same,relative viability,SK-LU-1; first compound 0.1581 µM,0.462
same,relative viability,SK-LU-1; first compound 0.5 µM,0.372
same,relative viability,NCI-H322M; first compound 0.005 µM,0.687
same,relative viability,NCI-H322M; first compound 0.01581 µM,0.608
same,relative viability,NCI-H322M; first compound 0.05 µM,0.472
same,relative viability,NCI-H322M; first compound 0.1581 µM,0.472
same,relative viability,NCI-H322M; first compound 0.5 µM,0.448
same,relative viability,NCI-H2085; first compound 0.005 µM,0.491
same,relative viability,NCI-H2085; first compound 0.01581 µM,0.512
same,relative viability,NCI-H2085; first compound 0.05 µM,0.518
same,relative viability,NCI-H2085; first compound 0.1581 µM,0.483
same,relative viability,NCI-H2085; first compound 0.5 µM,0.559
same,relative viability,NCI-H2023; first compound 0.005 µM,0.169
same,relative viability,NCI-H2023; first compound 0.01581 µM,0.116
same,relative viability,NCI-H2023; first compound 0.05 µM,0.114
same,relative viability,NCI-H2023; first compound 0.1581 µM,0.0751
same,relative viability,NCI-H2023; first compound 0.5 µM,0.0656
same,relative viability,NCI-H1915; first compound 0.005 µM,0.248
same,relative viability,NCI-H1915; first compound 0.01581 µM,0.289
same,relative viability,NCI-H1915; first compound 0.05 µM,0.269
same,relative viability,NCI-H1915; first compound 0.1581 µM,0.231
same,relative viability,NCI-H1915; first compound 0.5 µM,0.227
